Assay results from patent publication US5348953A, “Substituted azetidinones as anti-inflammatory and antidegenerative agents” (Merck & Co., Inc., priority 1992, dated 1994).
Like-named read-outs stand apart in the source and are kept apart here.

Biological target: T1, Human Polymorphonuclear Leukocyte Elastase (Homo sapiens, UniProt P08246)
T1 construct: Crude extract of human polymorphonuclear leukocytes (PMN) containing elastase activity; from tissue; host or cells: human polymorphonuclear leukocytes (crude extract)
T1 sequence (P08246 30-267): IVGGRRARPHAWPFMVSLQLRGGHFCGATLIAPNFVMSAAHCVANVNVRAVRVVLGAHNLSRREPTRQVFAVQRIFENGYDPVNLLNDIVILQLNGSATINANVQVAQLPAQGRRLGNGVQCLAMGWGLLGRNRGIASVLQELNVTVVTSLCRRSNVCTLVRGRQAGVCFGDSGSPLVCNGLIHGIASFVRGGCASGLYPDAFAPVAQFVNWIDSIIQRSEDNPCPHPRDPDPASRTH
Test: Inhibition of human polymorphonuclear leukocyte elastase via hydrolysis of Boc-AAPAN or Boc-AAPVN
Assay type: biochemical
Conditions: pH 7.5, Formula A, M n-propyl, read-out: kobs /[I]
Description: Enzyme Assays for the Inhibition of Human Polymorphonuclear Leukocyte
Elastase Via Hydrolysis of
N-t-Boc-alanyl-alanyl-prolylalanine-p-nitroanilide (Boc-AAPAN) or
N-t-Boc-alanyl-prolylvaline-p-nitroanilide (Boc-AAPVN) Reagent:
0.05M TES (N-tris[hydroxymethyl]methyl-2-amino-ethanesulfonic acid) Buffer, pH 7.5.
0.2 mM Boc-AAPAN or Boc-AAPVN.
To prepare substrate, the solid was first dissolved in 10.0 ml DMSO. Buffer at pH 7.5 was then added to a final volume of 100 ml.
Crude extract of human polymorphonuclear leukocytes (PMN) containing elastase activity.
Inhibitors (azetidinones) to be tested dissolved in DMSO just before use.
To 1.0 ml of 0.2 mM Boc-AAPAN in a cuvette, 0.01-0.1 ml of DMSO with or without inhibitor was added. After mixing, a measurement was taken at 410 mμ to detect any spontaneous hydrolysis due to presence of test compound. 0.05 Milliliters of PMN extract was then added and the ΔOD/min at 410 mμ was measured and recorded. Beckman model 35 spectrophotometer was used.
Results in Table I were reported as ID50, effective dosage in micrograms per milliliter (μg/ml) for 50% inhibition of the enzyme activity 2 minutes after zero time.
Results were also expressed as Ki, the micromolar concentration of the inhibitor (μM) giving 50% of the control enzyme activity; or as ^k obs/I which is the second order rate constant in per mole per second for inactivation of the enzyme.
The elastase activity in the crude PMN extract may vary from one preparation to another. A control of each new batch is run, and the volume added in the assay procedure is adjusted according to activity.

[1] = second order rate constant for inactivation, R2 4-methyl (TABLE 1)
[2] = second order rate constant, R4 piperazine amide with substituent Z
[3] = second order rate constant, R2 3,4-methylenedioxy

| SMILES | kinact/KI [1] [M⁻¹ s⁻¹] | further results |
| --- | --- | --- |
| CCC[C@@H](NC(=O)N1C(=O)C(CC)(CC)[C@@H]1OCC(=O)N(CC)CCN(CCOCC)C(C)C)c1ccc(C)cc1 | 195000 | – |
| CCC[C@@H](NC(=O)N1C(=O)C(CC)(CC)[C@@H]1OCC(=O)N1CCN(C2CC2)CC1)c1ccc2c(c1)OCO2 [2-(S)-[2-[2-(4-Cyclopropyl)piperazin-1-yl]-2-oxoethoxy]-3,3-diethyl-N-[1-(R)-(3,4-methylenedioxyphenyl)-butyl]-4-oxo-1-azetidinecarboxamide] | – | kinact/KI [2]: 560000 M⁻¹ s⁻¹ |
| CCC[C@@H](NC(=O)N1C(=O)C(CC)(CC)[C@@H]1OCC(=O)N(CC)CCN(C)CCOC)c1ccc2c(c1)OCO2 [2-(S)-[2-[[2-(2-Methoxyethyl)methylamino)ethy]ethylamino]-2-oxoethoxy]-3,3-diethyl-N-[1-(R)-(3,4-methylenedioxyphenyl)butyl]-4-oxo-1-azetidine carboxamide] | – | kinact/KI [3]: 450000 M⁻¹ s⁻¹ |
| CCC[C@@H](NC(=O)N1C(=O)C(CC)(CC)[C@@H]1OCC(=O)N(C)CCN(CCOCC)C(C)C)c1ccc(C)cc1 [2-(S)-[2-[[2-((2-Ethoxyethyl)-isopropylamino)ethyl]methylamino]-2-oxoethoxy]-3,3-diethyl-N-[1-(R)-(4-methylphenyl)butyl]-4-oxo-1-azetidinecarboxamide] | 140000 | – |
| CCC[C@@H](NC(=O)N1C(=O)C(CC)(CC)[C@@H]1OCC(=O)N(CCC)CCN(CCOCC)C(C)C)c1ccc(C)cc1 [2-(S)-[2-[[2-((2-Ethoxyethyl)-isopropylamino)ethyl]propylamino]-2-oxoethoxy]-3,3-diethyl-N-[1-(R)-(4-methylphenyl)butyl]-4-oxo-1-azetidinecarboxamide] | 185000 | – |
| CCC[C@@H](NC(=O)N1C(=O)C(CC)(CC)[C@@H]1OCC(=O)N(CCN(CC)CCOC)C(C)C)c1ccc(C)cc1 [2-(S)-[2-[[2-((2-Methoxyethyl)-ethylamino)ethyl]-isopropylamino]-2-oxoethoxy]-3,3-diethyl-N-[1-(R)-(4-methylphenyl)butyl]-4-oxo-1-azetidinecarboxamide] | 250000 | – |
| CCC[C@@H](NC(=O)N1C(=O)C(CC)(CC)[C@@H]1OCC(=O)N(CC)CCN(CC)CCOC)c1ccc(C)cc1 [2-(S)-[2-[[2-((2-Methoxyethyl)-ethylamino)ethyl]ethylamino]-2-oxoethoxy]-3,3-diethyl-N-[1-(R)-(4-methylphenyl)butyl]-4-oxo-1-azetidinecarboxamide] | 185000 | – |
| CCC[C@@H](NC(=O)N1C(=O)C(CC)(CC)[C@@H]1OCC(=O)N(C)CCN(CC)CCOC)c1ccc(C)cc1 [2-(S)-[2-[[2-((2-Methoxyethyl)-ethylamino)ethyl]methylamino]-2-oxoethoxy]-3,3-diethyl-N-[1-(R)-(4-methylphenyl)butyl]-4-oxo-1-azetidinecarboxamide] | 110000 | – |
| CCC[C@@H](NC(=O)N1C(=O)C(CC)(CC)[C@@H]1OCC(=O)N(C)CCN(CCOC)CCOC)c1ccc(C)cc1 [2-(S)-[2-[[2-(Di-(2-methoxyethyl)amino)ethyl]methylamino]-2-oxoethoxy]-3,3-diethyl-N-[1-(R)-(4-methylphenyl)butyl]-4-oxo-1-azetidinecarboxamide] | 165000 | – |
| CCC[C@@H](NC(=O)N1C(=O)C(CC)(CC)[C@@H]1OCC(=O)N(CC)CCN(C)C)c1ccc2c(c1)OCO2 [2-(S)-[2-[[2-(Dimethylamino)ethy]-ethylamino]-2-oxoethoxy]-3,3-diethyl-N-[1-(R)-(3,4-methylenedioxyphenyl)butyl]-4-oxo-1-azetidinecarboxamide] | – | kinact/KI [3]: 425000 M⁻¹ s⁻¹ |
| CCC[C@@H](NC(=O)N1C(=O)C(CC)(CC)[C@@H]1OCC(=O)N(CCN(C)C)C(C)C)c1ccc2c(c1)OCO2 [2-(S)-[2-[[2-(Dimethylamino)ethyl]-isopropylamino]-2-oxoethoxyl]-3,-3-diethyl-N-[1-(R)-(3,4-methylenedioxyphenyl)-butyl]-4-oxo-1-azetidinecarboxamide] | – | kinact/KI [3]: 500000 M⁻¹ s⁻¹ |
| CCC[C@@H](NC(=O)N1C(=O)C(CC)(CC)[C@@H]1OCC(=O)N1CCN(C)CC1)c1ccc2c(c1)OCO2 [R2=3,4-methylenedioxy-; R5=H; Z=--Me, 2-(S)-[2-[2-(4-Methyl)piperazin-1-yl]-2-oxoethoxy]-3,-3-diethyl-N-[1-(R)-(3,4-methylenedioxyphenyl)-butyl]-4-oxo-1-azetidinecarboxamide] | – | kinact/KI [2]: 530000 M⁻¹ s⁻¹ |
| CCC[C@@H](NC(=O)N1C(=O)C(CC)(CC)[C@@H]1OCC(=O)N1CCNCC1)c1ccc2c(c1)OCO2 [R2=3,4-methylenedioxy-; R5=H; Z=H] | – | kinact/KI [2]: 515000 M⁻¹ s⁻¹ |
| CCC[C@@H](NC(=O)N1C(=O)C(CC)(CC)[C@@H]1OCC(=O)N1CCN(CCO)CC1)c1ccc(C)cc1 [R2=4-Me; R5=H; Z=CH2 CH2 OH, 2-(S)-[2-[2-(4-(2-Hydroxy)ethyl)piperazin-1-yl]-2-oxoethoxy]-3,-3-diethyl-N[1-(R)-(4-methylphenyl)-butyl]-4-oxo-1-azetidinecarboxamide] | – | kinact/KI [2]: 300000 M⁻¹ s⁻¹ |
| CCC[C@@H](NC(=O)N1C(=O)C(CC)(CC)[C@@H]1OCC(=O)N1CCNCC1)c1ccc(C)cc1 [R2=4-Me; R5=H; Z=H] | – | kinact/KI [2]: 250000 M⁻¹ s⁻¹ |
| CCC[C@@H](NC(=O)N1C(=O)C(CC)(CC)[C@@H]1OCC(=O)N1CCN(C2CC2)CC1)c1ccc(C)cc1 [R2=4-Me; R5=H; Z=cyclopropyl, 2-(S)-[2-[2-(4-Cyclopropyl)piperazin-1-yl]-2-oxoethoxy]-3,-3-diethyl-N-[1-(R)-(4-methylphenyl)-butyl]-4-oxo-1-azetidinecarboxamide] | – | kinact/KI [2]: 225000 M⁻¹ s⁻¹ |
| CCC[C@@H](NC(=O)N1C(=O)C(CC)(CC)[C@@H]1OCC(=O)N(CC)CCN(C(C)C)C(C)C)c1ccc(C)cc1 [Y=N(Et)CH2 CH2; R5=H; R7=iPr; R8=iPr, 2-(S)-[2-[[2-(Diisopropylamino)ethyl]ethylamino]-2-oxoethoxy]-3,3-diethyl-N-[1-(R)-(4-methylphenyl)butyl]-4-oxo-1-azetidinecarboxamide] | 189000 | – |
| CCC[C@@H](NC(=O)N1C(=O)C(CC)(CC)[C@@H]1O[C@@H](C)C(=O)N(CC)CCN(C)C)c1ccc(C)cc1 [Y=N(Et)CH2 CH2; R5=Me; R7=Me; R8=Me, 2-(S)-[2-[[2-(Dimethylamino)ethyl]ethylamino]-2-oxo-(1-(S)-methyl)ethoxy]-3,3-diethyl-N-[1-(R)-(4-methylphenyl)butyl]-4-oxo-1-azetidinecarboxamide] | 1.77e+06 | – |

Further lines, with some results ahead:

| kinact/KI [1] [M⁻¹ s⁻¹] | SMILES | further results |
| --- | --- | --- |
| 400000 | CCC[C@@H](NC(=O)N1C(=O)C(CC)(CC)[C@@H]1OCC(=O)N1CCOCC1)c1ccc(C)cc1 | – |
| 80000 | CCC[C@@H](NC(=O)N1C(=O)C(CC)(CC)[C@@H]1OCC(=O)N(C)CCN1C(C)CCCC1C)c1ccc(C)cc1 (stereo partly drawn) [2-(S)-[2-[[2-(2,6-dimethylpiperidin-1-yl)ethyl]-methylamino]-2-oxoethoxy]-3,3-diethyl-N-[1-(R)-(4-methylphenyl)butyl] -4-oxo-1-azetidinecarboxamide] | – |
| 245000 | CCC[C@@H](NC(=O)N1C(=O)C(CC)(CC)[C@@H]1OCC(=O)N(CC)CCN1CCOCC1)c1ccc(C)cc1 [2-(S)-[2-[[2-(Morpholin-1-yl)ethyl]ethylamino]-2oxoethoxy]-3,3-diethyl-N-[1-(R)-(4-methylphenyl)butyl]-4-oxo-1-azetidinecarboxamide] | – |
| 177000 | CCC[C@@H](NC(=O)N1C(=O)C(CC)(CC)[C@@H]1OCC(=O)N(CC)CCN(CC)CC)c1ccc(C)cc1 [Y=N(Et)CH2 CH2; R5=H; R7=Et; R8=Et, 2-(S)-[2-[[2-(Diethylamino)ethyl]ethylamino]-2-oxoethoxy]-3,3-di ethyl-N-[1-(R)-(4-methylphenyl)butyl]-4-oxo-1-azetidinecarboxamide] | – |
| 115000 | CCC[C@@H](NC(=O)N1C(=O)C(CC)(CC)[C@@H]1OCC(=O)N(C)CCCN(C)C)c1ccc(C)cc1 [Y=N(Me)CH2 CH2 CH2; R5=H; R7=Me; R8=Me, 2-(S)-[2-[[3-(Dimethylamino)propyl]methylamino]-2-oxoethoxy]-3,3-diethyl-N-[1-(R)-(4-methylphenyl)butyl]-4-oxo-1-azetidinecarboxamide] | – |
| 150000 | CCC[C@@H](NC(=O)N1C(=O)C(CC)(CC)[C@@H]1OCC(=O)N(C)CCN(CC)CC)c1ccc(C)cc1 [Y=N(Me)CH2 CH2; R5=H; R7=Et; R8=Et, 2-(S)-[2-[[2-(Diethylamino)ethyl]methylamino]-2oxoethoxy]-3,3-diethyl-N-[1-(R)-(4-methylphenyl)butyl]-4-oxo-1-azetidinecarboxamide] | – |
| 114000 | CCC[C@@H](NC(=O)N1C(=O)C(CC)(CC)[C@@H]1OCC(=O)N(C)CCN(C)C)c1ccc(C)cc1 [Y=N(Me)CH2 CH2; R5=H; R7=Me; R8=Me, 2-(S)-[2-[[2-(Dimethylamino)ethyl]methylamino]-2-oxoethoxy]-3,3-diethyl-N-[1-(R)-(4-methylphenyl)butyl]-4-oxo-1-azetidinecarboxamide] | – |
